Assay results taken from PubChem BioAssay AID1919004 (Molecular Pharmacology Branch, DTP, NCI, 2023).

Test system: 883617-216-R-J1-PDC complex spheroids, growth, % test/control
Test: Anticancer human tumor 883617-216-R-J1-PDC patient-derived bladder carcinoma cell line growth inhibition [AhR]
Conditions: for IC50: curve of first compound; for viability, T/C: stronger effect = lower value
From the text: Multicellular complex tumor spheroid response to aryl hydrocarbon receptor antagonists in combination with a variety of drugs and investigational agents in selected tumor cell lines
The current study was undertaken to assess response to aryl hydrocarbon receptor antagonists in combination with standard-of-care drugs and investigational agents in solid tumor complex spheroid models. Complex spheroids include a stromal component modeled by human endothelial cells (HUVEC) and fibroblasts modeled by human mesenchymal stem cells (MSCs). The concentration ranges selected for each drug and investigational agent were based upon clinically achievable concentrations if the clinical Cmax of the agent was known.
Compounds. The drugs and investigational agents: BAY 2416964 (NSC825713), GNF351 (NSC835774), CH-223191 (NSC835775), CPI-455 (NSC825282), aza-TdCyd (NSC777586), decitabine (NSC127716), belinostat (NSC758774), entinostat (NSC756642), pevonedistat (NSC761192), tazemetostat (NSC777109), talazoparib (NSC765396), olaparib (NSC753686), selinexor (NSC780203), nedisertib (M3814, NSC802822), bortezomib (NSC756655), venetoclax (NSC766270), doxorubicin (NSC123127), elimusertib (BAY189344, NSC800525), ceralasertib (AZD6738, NSC777638), TAK-243 (NSC785004), alisertib (NSC759677), etoposide (NSC141540), topotecan (NSC609699), eribulin (NSC707389), gemcitabine (NSC613327), carboplatin (NSC241240), cisplatin (NSC119875), and SN-38 (NSC673596) were obtained from the National Cancer Institute (NCI) Developmental Therapeutics Program Chemical Repository (32). The FDA-approved anticancer drug set is available from the Developmental Therapeutics Program at https://dtp.cancer.gov/organization/dscb/obtaining/available plates.htm. […] The stock solutions were prepared in dimethyl sulfoxide (DMSO, Sigma-Aldrich, St. Louis, MO, cat. D2650), except for the platinum compounds which were prepared in saline (Quality Biological, Gaithersburg, MD, cat. 114-055-101), at 800-fold the tested concentration and stored at -70 degrees C prior to their use. All drugs and investigational agents were tested over a range starting from a high concentration at or near the clinical Cmax and decreasing in half-log increments. If the clinical Cmax for an agent had not been determined, the highest concentration tested was 10 microM (Table 1).
Cell Culture. All cells were maintained in an incubator at 37 degrees C and 5% CO2 with 95% humidity. The PDC lines were cultured according to standard operating procedures established by the NCI PDMR (https://pdmr.cancer.gov). Briefly, all PDCs were thawed and cultured in Matrigel-coated flasks prepared with a working solution of 1X Ham's F-12 nutrient mix, without supplementation (Invitrogen, Waltham, MA, cat. 11765054), 100 U/mL penicillin-streptomycin (Invitrogen, cat. 15140122), and 2.5% Matrigel (Corning Inc., Corning, NY, cat. 354248) for the first three passages. All PDCs were cultured in complete DMEM/F-12 media containing advanced DMEM/F-12 (Invitrogen, cat. 12634028), 4.9% defined fetal bovine serum, heat inactivated (HyClone Laboratories Inc., Logan, UT, cat. SH30070.03HI), 389 ng/mL hydrocortisone (Sigma-Aldrich, cat. H4001), 9.7 ng/mL human EGF recombinant protein (Invitrogen, cat. PHG0313), 23.4 microg/mL adenine (Sigma-Aldrich, cat. A2786), 97.3 U/mL penicillin-streptomycin (Invitrogen, cat. 15140122), 1.9 mM L-glutamine (Invitrogen, cat. 25030081), and 9.7 microM Y-27632 dihydrochloride (Tocris Bioscience, Bristol, United Kingdom, cat. 1254). The PDCs were cultured in complete DMEM/F12 media without 10 microM Y-27632 dihydrochloride for at least two passages prior to the screen. The established cell lines NCI-H1341 and […] were cultured in DMEM/F-12, HEPES (Invitrogen, cat. 11330032), 5% defined fetal bovine serum (HyClone Laboratories Inc., cat. SH30070.03), ITS premix universal culture supplement [insulin (5 microg/mL), transferrin (5 microg/mL), and selenious acid (5 ng/mL)] […]
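Also: exposure lasted 7 days after dosing on day 3 of spheroid growth.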

Q: How did the IC50 (second compound 0.1 µM) turn out when `CC(C)c1c(-c2ccccc2)nc2c(C#N)c[nH]n2c1=O` + Cc1ccccc1N=Nc1ccc(NC(=O)c2ccnn2C)c(C)c1 was run?
A: The IC50 was greater than 10 µM.

Q: And the IC50 (second compound 0.316 µM)?
A: Its IC50 is greater than 10 µM.

Q: What about the IC50 (second compound 1 µM) of the same compound?
A: Its IC50 is greater than 10 µM.

Q: And the IC50 (second compound 3.16 µM)?
A: The IC50 was greater than 10 µM.

Q: And the IC50 (second compound 10 µM)?
A: The IC50 was greater than 10 µM.

Q: And the viability, T/C (second compound 0.1 µM, first compound 0.0316 µM)?
A: The viability, T/C was 91.7%.

Q: What about the viability, T/C (second compound 0.1 µM, first compound 0.1 µM) of the same compound?
A: Its viability, T/C is 101%.

Q: What about the viability, T/C (second compound 0.1 µM, first compound 0.316 µM) of the same compound?
A: Its viability, T/C is 85.9%.

Q: What about the viability, T/C (second compound 0.1 µM, first compound 1 µM) of the same compound?
A: The viability, T/C was 103%.

Q: And the viability, T/C (second compound 0.1 µM, first compound 3.16 µM)?
A: The viability, T/C was 101%.

Q: What about the viability, T/C (second compound 0.1 µM, first compound 10 µM) of the same compound?
A: The viability, T/C was 93.7%.

Q: What about the viability, T/C (second compound 0.316 µM, first compound 0.0316 µM) of the same compound?
A: The viability, T/C was 99.1%.

Q: And the viability, T/C (second compound 0.316 µM, first compound 0.1 µM)?
A: The viability, T/C was 94.6%.

Q: And the viability, T/C (second compound 0.316 µM, first compound 0.316 µM)?
A: The viability, T/C was 86.6%.

Q: What about the viability, T/C (second compound 0.316 µM, first compound 1 µM) of the same compound?
A: The viability, T/C was 93.9%.

Q: What about the viability, T/C (second compound 0.316 µM, first compound 3.16 µM) of the same compound?
A: The viability, T/C was 86%.

Q: And the viability, T/C (second compound 0.316 µM, first compound 10 µM)?
A: The viability, T/C was 91.1%.

Q: And the viability, T/C (second compound 1 µM, first compound 0.0316 µM)?
A: Its viability, T/C is 84%.

Q: What about the viability, T/C (second compound 1 µM, first compound 0.1 µM) of the same compound?
A: The viability, T/C was 85%.

Q: What about the viability, T/C (second compound 1 µM, first compound 0.316 µM) of the same compound?
A: The viability, T/C was 87.7%.

Q: And the viability, T/C (second compound 1 µM, first compound 1 µM)?
A: The viability, T/C was 84.8%.

Q: What about the viability, T/C (second compound 1 µM, first compound 3.16 µM) of the same compound?
A: Its viability, T/C is 91%.

Q: And the viability, T/C (second compound 1 µM, first compound 10 µM)?
A: The viability, T/C was 91.6%.

Q: What about the viability, T/C (second compound 3.16 µM, first compound 0.0316 µM) of the same compound?
A: The viability, T/C was 87.7%.

Q: What about the viability, T/C (second compound 3.16 µM, first compound 0.1 µM) of the same compound?
A: Its viability, T/C is 89.6%.

Q: What about the viability, T/C (second compound 3.16 µM, first compound 0.316 µM) of the same compound?
A: Its viability, T/C is 72.8%.

Q: And the viability, T/C (second compound 3.16 µM, first compound 1 µM)?
A: Its viability, T/C is 84.5%.

Q: What about the viability, T/C (second compound 3.16 µM, first compound 3.16 µM) of the same compound?
A: Its viability, T/C is 82.9%.

Q: And the viability, T/C (second compound 3.16 µM, first compound 10 µM)?
A: Its viability, T/C is 77.7%.

Q: And the viability, T/C (second compound 10 µM, first compound 0.0316 µM)?
A: The viability, T/C was 75.4%.

Q: What about the viability, T/C (second compound 10 µM, first compound 0.1 µM) of the same compound?
A: Its viability, T/C is 78.3%.

Q: What about the viability, T/C (second compound 10 µM, first compound 0.316 µM) of the same compound?
A: Its viability, T/C is 82.1%.

Q: And the viability, T/C (second compound 10 µM, first compound 1 µM)?
A: The viability, T/C was 79.3%.

Q: What about the viability, T/C (second compound 10 µM, first compound 3.16 µM) of the same compound?
A: Its viability, T/C is 75.9%.

Q: And the viability, T/C (second compound 10 µM, first compound 10 µM)?
A: Its viability, T/C is 82.9%.

Q: For `CCN(c1cc(-c2ccc(CN3CCOCC3)cc2)cc(C(=O)NCc2c(C)cc(C)[nH]c2=O)c1C)C1CCOCC1` + Cc1cncc(-c2nc(NCCc3c[nH]c4ccccc34)c3ncn(C(C)C)c3n2)c1, which IC50 (second compound 0.1 µM) is on record?
A: The IC50 was greater than 3 µM.

Q: What about the IC50 (second compound 0.316 µM) of the same compound?
A: The IC50 was greater than 3 µM.

Q: What about the IC50 (second compound 1 µM) of the same compound?
A: The IC50 was greater than 3 µM.

Q: What about the IC50 (second compound 3.16 µM) of the same compound?
A: The IC50 was greater than 3 µM.

Q: What about the IC50 (second compound 10 µM) of the same compound?
A: Its IC50 is less than 0.00949 µM.

Q: What about the viability, T/C (second compound 0.1 µM, first compound 0.00949 µM) of the same compound?
A: Its viability, T/C is 93.3%.

Q: And the viability, T/C (second compound 0.1 µM, first compound 0.03 µM)?
A: The viability, T/C was 109%.

Q: What about the viability, T/C (second compound 0.1 µM, first compound 0.0949 µM) of the same compound?
A: Its viability, T/C is 94.1%.

Q: What about the viability, T/C (second compound 0.1 µM, first compound 0.3 µM) of the same compound?
A: Its viability, T/C is 96.6%.

Q: What about the viability, T/C (second compound 0.1 µM, first compound 0.949 µM) of the same compound?
A: Its viability, T/C is 98.2%.

Q: What about the viability, T/C (second compound 0.1 µM, first compound 3 µM) of the same compound?
A: The viability, T/C was 91.6%.

Q: What about the viability, T/C (second compound 0.316 µM, first compound 0.00949 µM) of the same compound?
A: Its viability, T/C is 103%.

Q: What about the viability, T/C (second compound 0.316 µM, first compound 0.03 µM) of the same compound?
A: The viability, T/C was 94.4%.

Q: And the viability, T/C (second compound 0.316 µM, first compound 0.0949 µM)?
A: The viability, T/C was 97.1%.

Q: What about the viability, T/C (second compound 0.316 µM, first compound 0.3 µM) of the same compound?
A: The viability, T/C was 96.2%.

Q: And the viability, T/C (second compound 0.316 µM, first compound 0.949 µM)?
A: The viability, T/C was 98.6%.

Q: What about the viability, T/C (second compound 0.316 µM, first compound 3 µM) of the same compound?
A: Its viability, T/C is 96.4%.

Q: What about the viability, T/C (second compound 1 µM, first compound 0.00949 µM) of the same compound?
A: Its viability, T/C is 103%.

Q: And the viability, T/C (second compound 1 µM, first compound 0.03 µM)?
A: The viability, T/C was 102%.

Q: And the viability, T/C (second compound 1 µM, first compound 0.0949 µM)?
A: Its viability, T/C is 110%.

Q: And the viability, T/C (second compound 1 µM, first compound 0.3 µM)?
A: The viability, T/C was 105%.

Q: What about the viability, T/C (second compound 1 µM, first compound 0.949 µM) of the same compound?
A: The viability, T/C was 97.8%.

Q: And the viability, T/C (second compound 1 µM, first compound 3 µM)?
A: Its viability, T/C is 107%.

Q: What about the viability, T/C (second compound 3.16 µM, first compound 0.00949 µM) of the same compound?
A: The viability, T/C was 93.7%.

Q: And the viability, T/C (second compound 3.16 µM, first compound 0.03 µM)?
A: Its viability, T/C is 102%.

Q: What about the viability, T/C (second compound 3.16 µM, first compound 0.0949 µM) of the same compound?
A: The viability, T/C was 112%.

Q: What about the viability, T/C (second compound 3.16 µM, first compound 0.3 µM) of the same compound?
A: The viability, T/C was 96.5%.

Q: And the viability, T/C (second compound 3.16 µM, first compound 0.949 µM)?
A: Its viability, T/C is 107%.

Q: What about the viability, T/C (second compound 3.16 µM, first compound 3 µM) of the same compound?
A: Its viability, T/C is 110%.

Q: What about the viability, T/C (second compound 10 µM, first compound 0.00949 µM) of the same compound?
A: The viability, T/C was 52.3%.

Q: What about the viability, T/C (second compound 10 µM, first compound 0.03 µM) of the same compound?
A: The viability, T/C was 46.9%.

Q: What about the viability, T/C (second compound 10 µM, first compound 0.0949 µM) of the same compound?
A: The viability, T/C was 47.2%.

Q: And the viability, T/C (second compound 10 µM, first compound 0.3 µM)?
A: The viability, T/C was 43.2%.

Q: What about the viability, T/C (second compound 10 µM, first compound 0.949 µM) of the same compound?
A: Its viability, T/C is 27.3%.

Q: And the viability, T/C (second compound 10 µM, first compound 3 µM)?
A: The viability, T/C was 15.5%.
